Assay results reported in PMC12598866, “A Comparative Study of Virucidal and Virustatic Multivalent Entry Inhibitors” (The Journal of Physical Chemistry. B, 2025).
Where two headings read alike, the source gives them in different places.

Key:
HSV-1 [1] = test system: HSV-1
H1N1 clinical = assay: Influenza inhibition assay (ICC on MDCK cells); format: cell-based; conditions: Influenza A virus, dose–response
H1N1N09 = assay: Influenza inhibition assay (ICC on MDCK cells); format: cell-based, Influenza A/Netherlands/602/2009 (H1N1); conditions: Influenza A virus, dose–response
BSA = biological target: T1, BSA (Bos taurus, UniProt P02769); assay: Isothermal titration calorimetry with BSA; format: binding, bovine; conditions: ITC, H2O
T1 construct: purchased Sigma-Aldrich

HSV-1 [2] = assay: HSV-1 inhibition assay (plaque reduction on Vero cells); format: cell-based, herpes simplex virus type 1; conditions: Human alphaherpesvirus 1, dose–response
Description: The inhibitory effect of compounds on HSV-1 was evaluated by plaque reduction assay. Vero cells were plated 24 h before the experiment in 24-well plates at a density of 10^5 cells/well. Serial dilutions of compounds in DMEM medium (2% FBS, 1% P/S) were prepared, followed by the addition of aliquots of HSV-1 such that the final titer of the virus is […] (with MOI = 0.0005). Compounds/virus mixtures were incubated at 37 °C for 1 h and added to the cells (250 μL/well). Followed by incubation at 37 °C for 1 h, the viral inoculum was removed. The cells were overlaid with DMEM medium containing 1.2% methylcellulose, 2% FBS, and 1% P/S. After 3 days of incubation at 37 °C, 5% CO2, the cells were fixed and stained with 0.1% crystal violet in 20% ethanol, and plaques were counted. Each group of experiments in the inhibition assay was performed in triplicate. The concentration producing a 50% reduction in plaque formation was determined using the Prism 10 software (GraphPad Software, USA) by comparing compound-treated and untreated cells. Infectivity was calculated as the number of plaques in compound-treated cells/number of plaques in untreated cells × 100%.

[3] = CMC assay (conductivity method); format: physicochemical; conditions: in water
Description: The CMC of antiviral compounds was measured by the conductivity method. Antiviral compounds were diluted into water at different concentrations, and the conductivity (μS/cm) was measured at each concentration with a conductivity meter (Mettler Toledo, Switzerland). The CMC was identified as the point on the conductivity-concentration plot where the slope changed.

[4] = Partition coefficient octanol/water (UV-vis); format: physicochemical
Description: UV–vis spectroscopy was employed first to determine the correct dilution of all compounds. The seven compounds in this study were B3C11SO4, B3C11SO3, B3C6SO3, B3C6SO4, C4C11SO4, C4C11SO3, and C4C3SO3. The protocol is the same for all the compounds: in the beginning, all compounds were dissolved in water at a concentration of 1 mg/mL. The solution was put into a quartz cuvette and then into the UV–vis spectrometer, where the absorbance from wavelengths 600 to 190 nm was investigated. All of the samples presented a peak in absorbance around 200 nm. The samples were diluted further until the absorbance peak reached values near 0.90.
A biphasic solution composed of 1.5 mL of a water solution of antiviral +1.5 mL of octanol was thoroughly mixed for 60 min. After the mixing, the two phases were separated by centrifugation for 1 min using a benchtop centrifuge at 5000 rpm. The water phase saturated in octanol and the octanol phase saturated with water were extracted and characterized by UV–vis spectrometry.
The partition coefficient (log P) was then calculated using formula : logP=log(Absorbanceofoctanolphase/Absorbanceofwaterphase) 1

HSV-2 [5] = assay: HSV-2 inhibition assay (plaque reduction on Vero cells, pretreatment); format: cell-based, herpes simplex virus type 2; conditions: for IC50: Human alphaherpesvirus 2, Vero, dose–response, Vero cells; for IC99: HSV-2 inhibition, concentration intended to inhibit infection by at least 90 and 99%
Description: The inhibitory effect of compounds on HSV-2 was evaluated by plaque reduction assay. Vero cells were plated 24 h before the experiment in 24-well plates with a seeding density of 10^5 cells/well. Serial dilutions of compounds in DMEM medium (2% FBS, 1% P/S) were prepared, followed by the addition of aliquots of HSV-2 such that the final titer of the virus was 200 pfu/mL (with MOI = 0.0005). Compounds/virus mixtures were incubated at 37 °C for 1 h and added to the cells (250 μL/well). Followed by incubation at 37 °C for 1 h, the viral inoculum was removed. The cells were overlaid with DMEM medium containing 1.2% methylcellulose, 2% FBS, and 1% P/S. After 48 h of incubation at 37 °C, 5% CO2, the cells were fixed and stained with 0.1% crystal violet in 20% ethanol. Finally, the plaques were counted. Each group of experiments in the inhibition assay was performed in triplicate. The concentration producing a 50% reduction in plaque formation was determined using Prism 10 software (GraphPad Software, USA) by comparing compound-treated and untreated cells. Infectivity was calculated as the number of plaques in compound-treated cells/number of plaques in untreated cells × 100%.

HSV-2 [6] = assay: as above; format: cell-based, herpes simplex virus type 2; conditions: Human alphaherpesvirus 2, Vero, pretreatment condition
H3N2 = assay: Influenza inhibition assay (ICC on MDCK cells, pretreatment); format: cell-based; conditions: Influenza A virus
[7] = Cytotoxicity assay for MDCK (MTT); format: cell-based; conditions: dog, MDCK cells
Description: MTT assay was used to evaluate the cytotoxicity on MDCK cells. 10^4 cells per well were seeded in a 96-well plate 1 day before the assay. A dose range of each drug (from 4.11 μM to 1000 μM) was added to the cells in serum-free medium for MDCK cells. The antivirals were incubated on the cells for 24 h at 37 °C. After incubation, the cells were washed, and MTT reagent (Promega) was added to the cells for 4 h at 37 °C according to the manufacturer’s instructions. The cells were then washed, and 50 μL of DMSO was added to free the reagent. Subsequently, the absorbance was read at 579 nm. Percentages of viability were calculated by comparing the absorbance in treated wells and untreated conditions.

[8] = biological target: glycoprotein D (gD) of HSV; assay: Isothermal titration calorimetry with glycoprotein D; format: binding; conditions: ITC, 25°C
Description: Isothermal titration calorimetry (ITC) experiments were conducted using ITC200 instruments (GE Healthcare, USA) equipped with a 200 μL sample cell and a 40 μL syringe. Thirteen injections were applied. The first data point was excluded. BSA protein and viral protein concentrations in the cell were approximately 50 μM and 1 mg/mL, respectively, and ligand concentrations in the syringe were roughly 2 mM. They were centrifuged at 2000g for 2 min to remove bubbles. The titration was performed at 25 or 37 °C, with data analyzed using MicroCal PEAQ ITC software. Baseline correction was applied, and Nitpic/Sedphat was used for automated integration to ensure precise binding parameter determination.

HSV-2 [9] = assay: HSV-2 virucidal assay; format: cell-based, herpes simplex virus type 2; conditions: virucidal titration at 90–99% viral inhibition concentration, Vero cells
Flu B = assay: Influenza inhibition assay (ICC on MDCK cells); format: cell-based; conditions: dose–response
[10] = Cytotoxicity assay on Vero cells (MTS); format: cell-based; conditions: African green monkey
Description: Cytotoxicity assay was performed on the Vero cell line with the MTS assay. The cells were plated for 24 h in DMEM medium containing 10% FBS and 1% penicillin/streptomycin with a seeding density of 2 × 10^4 per well in a 96-well plate. […] Then, the cells were washed with PBS twice, followed by the addition of 20 μL MTS reagents together with 80 μL DMEM medium. They were then incubated at 37 °C for 4 h. The cell viability was checked by absorbance at 490 nm with a plate reader.

HSV-2 [11] = assay: Growth of viruses in the presence of compounds (posttreatment), HSV-2; format: cell-based, herpes simplex virus type 2; conditions: posttreatment condition, Vero cells
HSV-2 [12] = test system: HSV-2; design: method as in Zhu et al., 2024 (citation number not given); conditions: earlier paper of the authors on benzene-core MEIs; ref Zhu et al., 2024 (citation number not given); read-out: IC50 against HSV-2; cited from earlier work
[13] = dose–response, read-out: IC50 H3N2
[14] = pretreatment condition, read-out: pretreatment IC50, H3N2

T1 sequence (P02769 25-607): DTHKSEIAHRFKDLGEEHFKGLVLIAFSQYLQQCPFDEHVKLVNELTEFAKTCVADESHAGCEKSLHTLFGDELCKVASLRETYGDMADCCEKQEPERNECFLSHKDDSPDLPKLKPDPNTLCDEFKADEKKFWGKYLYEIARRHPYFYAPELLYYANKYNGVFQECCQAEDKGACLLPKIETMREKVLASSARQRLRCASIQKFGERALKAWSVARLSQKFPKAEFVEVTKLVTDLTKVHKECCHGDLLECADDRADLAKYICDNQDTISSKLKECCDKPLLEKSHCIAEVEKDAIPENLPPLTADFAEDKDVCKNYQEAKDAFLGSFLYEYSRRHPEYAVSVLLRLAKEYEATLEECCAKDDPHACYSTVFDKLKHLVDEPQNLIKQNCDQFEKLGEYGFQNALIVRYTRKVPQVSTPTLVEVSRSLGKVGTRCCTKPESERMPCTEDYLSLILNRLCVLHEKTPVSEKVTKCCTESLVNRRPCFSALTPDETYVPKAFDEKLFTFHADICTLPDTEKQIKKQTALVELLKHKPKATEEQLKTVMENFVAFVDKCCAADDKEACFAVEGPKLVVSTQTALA

| SMILES | Virucidal activity, V-1 (HSV-1 [1]) | IC50 (H1N1 clinical) [mM] | IC50 (H1N1N09) [µM] | N (binding sites, BSA) (BSA; 25 °C (Table 5)) | ΔG (BSA) (BSA; 25 °C (Table 5)) | ΔH (BSA) (BSA; 25 °C (Table 5)) | –ΔTS (BSA) (BSA; 25 °C (Table 5)) | IC50 (HSV-1 [2]) [µM] | CMC [3] [µM] | logP [4] | IC50 (HSV-2 [5]) [µM] | IC50 (HSV-2 [6]) [µM] | IC50 (H3N2; [13]) [mM] | IC50 (H3N2; [14]) [mM] | CC50 at 24 h [7] [mM] | Kd [8] [µM] | Virucidal activity, HSV-2 (HSV-2 [9]) | IC50 (Flu B) [mM] | CC50 at 48 h [10] [mM] | IC50 (HSV-2 [11]; Human alphaherpesvirus 2, Vero) [µM] | further results |
| --- | --- | --- | --- | --- | --- | --- | --- | --- | --- | --- | --- | --- | --- | --- | --- | --- | --- | --- | --- | --- | --- |
| O=S(=O)(O)CCCCCCSCc1cc(CSCCCCCCS(=O)(=O)O)cc(CSCCCCCCS(=O)(=O)O)c1 [B3C6SO3] | S | > 1 | > 1000 | no binding | no binding | no binding | no binding | 502.3 ± 2.15 | 882.2 ± 18.9 | -2.39 | 487.3 ± 2.19 | 487 | > 1 | > 1 | > 1 | 14.2 | S | > 1 | > 1 | 180 | K d (BSA) (BSA; 25 °C (Table 5)): no binding; IC50 (HSV-2 [11]): 181 ± 2.06 µM |
| O=S(=O)(O)OCCCCCCSCc1cc(CSCCCCCCOS(=O)(=O)O)cc(CSCCCCCCOS(=O)(=O)O)c1 [B3C6SO4] |  | > 1 | 346.9 ± 1.94 |  |  |  |  | 208 ± 31.4 | 1390 ± 45.6 | -1.79 | 52.9 ± 1.9 | 52.9 ± 1.9 | > 1 | 0.3469 ± 0.00194 | > 1 | 28.1 |  | > 1 | > 1 | 56.9 ± 1.48 | -∆TS (BSA) (BSA; 25 °C (Table S3)): 7.2 kcal/mol; Kd (BSA; 25 °C (Table S3)): 7.27 µM; N (BSA) (BSA; 25 °C (Table S3)): 1.69; ∆G (BSA) (BSA; 25 °C (Table S3)): -7.29 kcal/mol; ∆H (BSA) (BSA; 25 °C (Table S3)): -14.5 kcal/mol; -∆TS (BSA) (BSA; 37 °C (Table S3)): 0.938 kcal/mol; Kd (BSA; 37 °C (Table S3)): 1.4 µM; N (BSA) (BSA; 37 °C (Table S3)): 1.3; ∆G (BSA) (BSA; 37 °C (Table S3)): -7.99 kcal/mol; ∆H (BSA) (BSA; 37 °C (Table S3)): -8.93 kcal/mol; IC99 (HSV-2 [5]): 1328 ± 1.9 µM; IC50 (HSV-2 [12]): 78.4 µM |
| O=S(=O)(O)CCCSCc1cc2c(cc1CSCCCS(=O)(=O)O)OCCOCCOc1cc(CSCCCS(=O)(=O)O)c(CSCCCS(=O)(=O)O)cc1OCCOCCO2 [C4C3SO3] | S |  | > 1000 | 0.5 | –5.73 kcal/mol | –7.34 kcal/mol | 1.61 kcal/mol | 551.9 ± 2 | 462.69 ± 57 | -2.45 | 173.4 ± 1.1 | 173.4 ± 1.1 | > 1 | > 1 | > 1 |  | S | > 1 | > 1 | 69.1 ± 1.01 | Kd (BSA; 25 °C (Table 5), read-out: K d (BSA)): 63 µM; -∆TS (BSA) (BSA; 25 °C (Table S3)): 1.61 kcal/mol; N (BSA) (BSA; 25 °C (Table S3)): 0.5; ∆G (BSA) (BSA; 25 °C (Table S3)): -5.73 kcal/mol; ∆H (BSA) (BSA; 25 °C (Table S3)): -7.34 kcal/mol; -∆TS (BSA) (BSA; 37 °C (Table S3)): 24.6 kcal/mol; Kd (BSA; 37 °C (Table S3)): 52.1 µM; N (BSA) (BSA; 37 °C (Table S3)): 0.397; ∆G (BSA) (BSA; 37 °C (Table S3)): -6.08 kcal/mol; ∆H (BSA) (BSA; 37 °C (Table S3)): -30.6 kcal/mol; IC99 (HSV-2 [5]): 446 ± 1.1 µM |
